Five molecules from US20150079000A1, “Labelled Quinoxaline Derivatives as Multimodal Radiopharmaceuticals and Their Precursors” (INSTITUT NATIONAL DE LA SANTET DE LA RECHERCHE MEDICALE, priority 2012, published 2015) can be followed below.

The data set is described as follows: Metabolism of compound [125I](1). It is filed as in vivo, mice. As to the method:
24 primary melanoma bearing mice were intravenously injected with 2.2 MBq of [^1251](1) and sacrificed 1 h, 3 h, 6 h, 24 h, 72 h and 10 days after tracer injection. To determine the metabolic stability of [^1251](1), blood, tumour, eyes, liver, kidney and urine samples were collected at each time point […]. Faeces were collected between 0-24 h and 24-48 h. Blood was immediately diluted in 5 mL of methanol/NH4OH 99.8:0.2 and centrifuged for 5 min at 3,000 rpm. Tumour, eyes, liver, kidneys and faeces were suspended in 5 mL of methanol/NH4OH 99.8:0.2, homogenized using GentleMACS™ dissociator (Miltenyi Biotec, Bergisch Gladbach, Germany) and centrifuged for 5 min at 3,000 rpm (repeated 2 times). Urines were analysed without any treatment. The extraction efficiency was determined by measuring the radioactivity of supernatants and precipitates. Supernatants were passed through a 0.22 μm Millipore filter and then concentrated to a volume between 200 and 500 μL before injection (duplicate) onto the analytical HPLC(C18 column; solvent A: H2O (0.2% NH4OH); solvent B: MeOH (0.2% NH4OH); Gradient elution: 0-5 min: 90 to 70% of A (Q=0.5 mL·min^−1); 5-30 min: 70 to 20% of A (Q=0.9 mL·min^−1); 30-32 min: 10% of A (Q=0.9 mL·min^−1)).

Setting [1] is: Feces, (grid: 3 h; faeces collected 24-48 h).
Setting [2] is: Feces, first value column (grid: 1 h; faeces collected 0-24 h).
[3] abbreviates: Urine, 1 h after [125I](1) injection.
[4] abbreviates: Urine, 3 h after [125I](1) injection.
[5] abbreviates: Urine, 6 h after [125I](1) injection.
The mark [6] stands for this setting: Urine, 24 h after [125I](1) injection.
[7] abbreviates: Urine, 72 h after [125I](1) injection.
The mark [8] stands for this setting: Blood, 1 h after [125I](1) injection.
Setting [9] is: Blood, 3 h after [125I](1) injection.
[10] abbreviates: Blood, 6 h after [125I](1) injection.
Where [11] appears, read: Kidney, 1 h after [125I](1) injection.
The mark [12] stands for this setting: Kidney, 3 h after [125I](1) injection.
Setting [13] is: Kidney, 6 h after [125I](1) injection.
Where [14] appears, read: Liver, 1 h after [125I](1) injection.
Where [15] appears, read: Liver, 3 h after [125I](1) injection.
Setting [16] is: Liver, 6 h after [125I](1) injection.
Setting [17] is: Liver, 24 h after [125I](1) injection.

On to `O=C(O)CNC(=O)c1cnc2cc([125I])ccc2n1` [Acid [^125I]II], for which the “% of radioactivity” value under setting [1] worked out at 3.5 ± 0.7%; the “% of radioactivity” value under setting [2] is listed as 3.0 ± 0.0%; the “% of radioactivity” value under setting [3] amounted to 30.3 ± 2.4%; the “% of radioactivity” value under setting [4] worked out at 24.0 ± 0.0%; the “% of radioactivity” value under setting [5] is listed as 21.0 ± 0.0%; the “% of radioactivity” value under setting [6] came to 6.5 ± 0.7%. Also, the “% of radioactivity” value under setting [7] amounted to 0.0 ± 0.0%.
As to `O=C(O)c1cnc2cc([125I])ccc2n1` [Acid [^125I]I], the “% of radioactivity” value is, setting by setting: under setting [8], 21.5 ± 2.1%; under setting [9], 11.5 ± 0.7%; under setting [10], 11.0 ± 0.0%; under setting [1], 8.0 ± 1.4%; under setting [2], 7.5 ± 0.7%; under setting [11], 29.0 ± 1.4%. In addition, the “% of radioactivity” value was found to be 34.2 ± 0.7% under setting [12]; 43.0 ± 1.4% under setting [13]; 17.2 ± 3.1% under setting [3]; 20.0 ± 1.4% under setting [4]; 16.0 ± 1.4% under setting [5]; 3.5 ± 0.7% under setting [6]. Also, the “% of radioactivity” value under setting [7] is 0.0 ± 0.0%.
Regarding `CCNCCNC(=O)c1cnc2cc([125I])ccc2n1` [Amine [^125I]II], the “% of radioactivity” value under setting [1] was 2.5 ± 0.7% and the “% of radioactivity” value under setting [2] turned out to be 6.5 ± 0.7%.
For `NCCNC(=O)c1cnc2cc([125I])ccc2n1` [Amine [^125I]I], the “% of radioactivity” value runs as follows: under setting [1], 14.0 ± 0.0%; under setting [2], 16.0 ± 0.0%; under setting [11], 18.5 ± 0.7%; under setting [12], 11.7 ± 0.7%; under setting [13], 0.0 ± 0.0%; under setting [14], 26.0 ± 0.0%. Moreover, the “% of radioactivity” value under setting [15] is given as 45.5 ± 2.1%; the “% of radioactivity” value under setting [16] was 55.0 ± 2.8%; the “% of radioactivity” value under setting [17] is recorded as 70.5 ± 0.7%; the “% of radioactivity” value under setting [3] came out at 6.6 ± 0.6%; the “% of radioactivity” value under setting [4] is reported as 13.0 ± 1.4%; the “% of radioactivity” value under setting [5] came to 3.5 ± 4.9%. In addition, the “% of radioactivity” value under setting [6] is on record as 0.0 ± 0.0% and the “% of radioactivity” value under setting [7] worked out at 0.0 ± 0.0%.
Turning to `[125IH]` [[^125I]I^−], the “% of radioactivity” value is listed as 76.5 ± 0.7% under setting [8]; 88.5 ± 0.7% under setting [9]; 85.5 ± 4.9% under setting [10]; 9.5 ± 0.7% (Eyes, 1 h after [125I](1) injection); 5.5 ± 2.1% (Eyes, 3 h after [125I](1) injection); 4.0 ± 5.7% (Eyes, 6 h after [125I](1) injection). Besides, the “% of radioactivity” value was 0.0 ± 0.0% (Eyes, 24 h after [125I](1) injection); 0.0 ± 0.0% (Eyes, 72 h after [125I](1) injection); 0.0 ± 0.0% (Eyes, 10 d after [125I](1) injection); 27.0 ± 1.4% under setting [1]; 8.0 ± 0.0% under setting [2]; 20.5 ± 0.7% under setting [11]. Also, the “% of radioactivity” value by setting is: under setting [12], 37.2 ± 2.2%; under setting [13], 57.0 ± 1.4%; under setting [14], 20.0 ± 1.4%; under setting [15], 21.5 ± 4.9%; under setting [16], 29.5 ± 0.7%; under setting [17], 29.5 ± 0.7%. Moreover, the “% of radioactivity” value reads like this: (Tumour, 1 h after [125I](1) injection) 13.0 ± 1.4%; (Tumour, 3 h after [125I](1) injection) 6.5 ± 0.7%; (Tumour, 6 h after [125I](1) injection) 9.0 ± 0.0%; (Tumour, 24 h after [125I](1) injection) 0.0 ± 0.0%; (Tumour, 72 h after [125I](1) injection) 0.0 ± 0.0%; (Tumour, 10 d after [125I](1) injection) 0.0 ± 0.0%. For the same molecule, the “% of radioactivity” value is 25.7 ± 3.2% under setting [3]; 30.5 ± 0.7% under setting [4]; 51.0 ± 4.2% under setting [5]; 85.0 ± 1.4% under setting [6]; 99.0 ± 0.0% under setting [7].
